In patent publication US8420606B2, “Method of utilizing physiological activity of rare saccharide and composition containing rare saccharide” (priority 2002, dated 2013):
“Also recorded” adds a separate entry of the source.

Legend:
[1] = test system: Human vascular endothelial cells (HUVECs); assay: MCP-1 secretion from vascular endothelial cells, ELISA; assay type: cell-based; conditions: D-psicose 0, 5.6, 11.2 mM, 24 hours
Protocol: Human vascular endothelial cells (HUVECs) were cultured under the culture medium condition of (DMEM +10% FBS) in accordance with the ordinary method. HUVECs at concentration of about 70% were pipitted into a 96-well culture dish, and the following experiments were performed.
D-psicose was added to the HUVECs culture medium at concentrations of 0 mM, 5.6 mM and 11.2 mM. After cultivation for 24 hours, MCP-1 in the culture medium was measured by using an ELISA (Quantikine, R&D) kit.
HUVECs were pretreated for 1 hour with cytokines acting upon HUVECs and stimulating secretion of MCP-1, i.e., IL-1β (maximum secretion stimulus concentration of 1 ng/mL), and TNF-α (maximum secretion stimulus concentration of 10 ng/mL). Then, D-psicose was added at concentrations of 0 mM, 5.6 mM and 11.2 mM, and after 24-hour cultivation, the MCP-1 concentration in the culture medium was measured by using the ELISA kit. […] The secretion of MCP-1 in the vascular endothelial cells is stimulated by cytokines (IL-1β, TNF-α) at maximum secretion stimulus concentration of 1 ng/mL for IL-1β and 10 ng/mL for TNF-α.

livers of rats = assay: rat liver ischemia-reperfusion, survival; assay type: in vivo; conditions: liver ischemia 90 minutes then reperfusion; D-allose 0.2 g/kg perfused before the ischemia; usually only 30%
Protocol: When a surgical operation for intestinal organs, such as the liver, is performed, a blood flow is always temporarily stopped. This brings the intestinal organs into the ischemia state. When blood is started to flow again after the surgery, active oxygen is produced in large amount from leukocyte at that time, which is considered as one of major causes bringing about the organic injury. The inventors conducted an experiment through the steps of bringing the livers of rats into the ischemia state for a relatively long time, i.e., 90 minutes, and then reperfusing blood to examine the survival rate of the rats after 3 months depending on application or non-application of the rare saccharide. While the survival rate is usually only 30%, it increased to about 70% by perfusing D-allose at 0.2 g/kg before the ischemia. […] This effect is considered to be one factor making D-allose effective in organ protection.

[2] = test system: skin keratinocyte (HaCaT); assay: proliferation of cultured cells, MTT method, HaCaT; assay type: cell-based, human; conditions: saccharide 50 mM, 4 to 5 days
Protocol: Various kinds of rare saccharides were added at a concentration of 50 mM to culture media under the following conditions, and an influence of each rare saccharide upon the progress of proliferation of cancer cell strains was examined.
(1) Target cells to which the rare saccharides were added: Hepatic cancer cells (HepG2), uterine cancer cells (He1a), ovary cancer cells (OVCAR3), and skin keratinocyte (HaCaT) were selected as target cells to which the rare saccharides were added.
(2) Rare saccharides added: In addition to D-allose, glucose and D-altros as rare saccharides belonging to ketose were added, as other comparative saccharides, to the addition target cells. Also, D-fructose was employed as a control.
(3) Experiment method: A number 3,000-5,000 of addition target cells per type were inoculated into a multi-well plastic dish (hereinafter referred to as a “well”) having 96 wells, and were cultured for 4 to 5 days in a culture medium supplemented with 5 to 10% of Fetal Bovine Serum (FBS) depending on the cell types. […] To examine the influence upon the cell proliferation, the cell number was measured in units of 24 hours by using the MTT method described below. […]
(2) Test method: The cells were treated with TEP to prepare a cell suspension liquid. […] The absorbance of the liquid was measured at a wavelength of 570 to 600 nm by using a spectrophotometer. […]

[3] = test system: OVCAR3 (ovary cancer) cells; assay: cell cycle analysis by flow cytometer; assay type: cell-based, human; conditions: D-allose 50 mM, cultured for 3 days; control 12.6%
Protocol: (2) Method: The cell cycle was analyzed by using a flow cytometer. Cells used here were OVCAR3 (ovary cancer) cells. 1) The cells were treated with trypsin to prepare a cell suspension liquid. 2) The cells were inaculated into a plastic tissue with a diameter of 100 mm and cultured for 24 hours (overnight) in a CO2 incubator. 3) Two groups of the cells, i.e., one with a rare saccharide (D-allose 50 mM) and the other with no rare saccharides (with D-glucose as a control), were cultured for 3 days. 4) The separated cells were washed twice with PBS(−). 5) After centrifugation, 3 mL of PBS(−) was added and stirred by pipetting. 6) 7 mL of 100% ethanol was added, followed by fixation at 4° C. for 2 hours. 7) The liquid was subjected to centrifugation at 1500 rpm for 5 minutes. 8) The separated cells were washed twice with cold PBS(−). 9) After centrifugation, 200 μg/mL of RNase was added, followed by incubation at 37° C. for 30 minutes. 10) 0.5 mL of PI (propidum iodide) was added, followed by incubation for 15 minutes. 11) The cell number was measured by using a flow cytometer.

Structure (SMILES): O=C(CO)[C@H](O)[C@H](O)[C@H](O)CO [D-psicose]
- basic secretion of MCP-1 [1]: able to inhibit the secretion of MCP-1 depending on the concentration; also recorded: has a MCP-1 secretion inhibitory effect
- cytokine-stimulated secretion of MCP-1 ([1]; IL-1β 1 ng/mL pretreatment 1 hour): inhibited by added D-psicose depending on the concentration; also recorded: inhibits secretion of MCP-1

Structure (SMILES): O=C[C@H](O)[C@H](O)[C@H](O)[C@H](O)CO [D-allose]
- survival rate of the rats after 3 months (livers of rats): about 70%
- proliferation of HaCaT cells (cell number over time) [2]: strongly inhibited proliferation; also recorded: has a proliferation inhibitory effect
- proportion of the cells in G2-M stage of the cell cycle [3]: 22.6%
